Patent US20240317721A1, “PYRAZOLYL DERIVATIVES AS INHIBITORS OF THE KRAS MUTANT PROTEIN” (NOVARTIS AG, priority 2021, published 2024)

Each compound was assayed against KRasG12C (M1-K169, biotinylated on the N-terminus) (Homo sapiens (Human), UniProt P01116, G12C) (assay: Covalent competition assay: scintillation proximity assay (SPA) quantifying covalent modification of KRASG12C). Details: competition with radiolabeled covalent probe (Compound B/Compound A), 2 hours incubation, 10 nM KRasG12C.
Assay type: binding
How it was run: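 Test compounds compete with a radiolabeled covalent probe for modification of N-terminally biotinylated KRasG12C(M1-K169):GDP, final 10 nM protein, 25 nM radio-ligand, 475 nM unlabelled ligand, 2 h with agitation in 20 mM Tris-HCl pH 7.5, 150 mM NaCl, 0.1 mM MgCl2, 0.01% Tween-20.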

Row | SMILES | IC50 [nM]
1 | C=CC(=O)N1CC2(CC(n3nc(N4CCN(CCO)CC45CCC5)c(-c4c(Cl)c(C)cc5[nH]ncc45)c3C)C2)C1 (single isomer, unassigned) [Example 162a, 1-(6-(4-(5-chloro-6-methyl-1H-indazol-4-yl)-3-(8-(2-hydroxyethyl)-5,8-diazaspiro[3.5]nonan-5-yl)-5-methyl-1H-pyrazol-1-yl)-2-azaspiro[3.3]heptan-2-yl)prop-2-en-1-one] | > 5000
2 | C=CC(=O)N1CC2(CC(n3nc(N4CCN(CCO)CC45CCC5)c(-c4c(Cl)c(C)cc5[nH]ncc45)c3C)C2)C1 (single isomer, unassigned) [Example 162b, 1-(6-(4-(5-chloro-6-methyl-1H-indazol-4-yl)-3-(8-(2-hydroxyethyl)-5,8-diazaspiro[3.5]nonan-5-yl)-5-methyl-1H-pyrazol-1-yl)-2-azaspiro[3.3]heptan-2-yl)prop-2-en-1-one] | 27
3 | C=CC(=O)N1CC2(CC(n3nc(N4CCN(CCO)CC4(C)C)c(-c4c(Cl)c(C)cc5[nH]ncc45)c3C)C2)C1 (single isomer, unassigned) [Example 163a, 1-(6-(4-(5-chloro-6-methyl-1H-indazol-4-yl)-3-(4-(2-hydroxyethyl)-2,2-dimethylpiperazin-1-yl)-5-methyl-1H-pyrazol-1-yl)-2-azaspiro[3.3]heptan-2-yl)prop-2-en-1-one] | > 5000
4 | C=CC(=O)N1CC2(CC(n3nc(N4CCN(CCO)CC4(C)C)c(-c4c(Cl)c(C)cc5[nH]ncc45)c3C)C2)C1 (single isomer, unassigned) [Example 163b, 1-(6-(4-(5-chloro-6-methyl-1H-indazol-4-yl)-3-(4-(2-hydroxyethyl)-2,2-dimethylpiperazin-1-yl)-5-methyl-1H-pyrazol-1-yl)-2-azaspiro[3.3]heptan-2-yl)prop-2-en-1-one] | 114
5 | C=CC(=O)N1CC2(CC(n3nc(N4CCN(CC(C)(C)O)C[C@@]4(C)CC)c(-c4c(Cl)c(C)cc5[nH]ncc45)c3C)C2)C1 (single isomer, unassigned) [Example 164a] | > 5000
6 | C=CC(=O)N1CC2(CC(n3nc(N4CCN(CC(C)(C)O)C[C@@]4(C)CC)c(-c4c(Cl)c(C)cc5[nH]ncc45)c3C)C2)C1 (single isomer, unassigned) [Example 164b] | 56
7 | C=CC(=O)N1CC2(CC(n3nc(N4CCN(CC(C)(C)O)CC45CCCC5)c(-c4c(Cl)c(C)cc5[nH]ncc45)c3C)C2)C1 (single isomer, unassigned) [Example 165a, 1-(6-(4-(5-chloro-6-methyl-1H-indazol-4-yl)-3-(9-(2-hydroxy-2-methylpropyl)-6,9-diazaspiro[4.5]decan-6-yl)-5-methyl-1H-pyrazol-1-yl)-2-azaspiro[3.3]heptan-2-yl)prop-2-en-1-one] | > 5000
8 | C=CC(=O)N1CC2(CC(n3nc(N4CCN(CC(C)(C)O)CC45CCCC5)c(-c4c(Cl)c(C)cc5[nH]ncc45)c3C)C2)C1 (single isomer, unassigned) [Example 165b, 1-(6-(4-(5-chloro-6-methyl-1H-indazol-4-yl)-3-(9-(2-hydroxy-2-methylpropyl)-6,9-diazaspiro[4.5]decan-6-yl)-5-methyl-1H-pyrazol-1-yl)-2-azaspiro[3.3]heptan-2-yl)prop-2-en-1-one] | 26
9 | C=CC(=O)N1CC2(CC(n3nc(N4CCN(CC(C)(C)O)C[C@@]4(C)C(F)F)c(-c4c(Cl)c(C)cc5[nH]ncc45)c3C)C2)C1 (single isomer, unassigned) [Example 166a] | > 5000
10 | C=CC(=O)N1CC2(CC(n3nc(N4CCN(CC(C)(C)O)C[C@@]4(C)C(F)F)c(-c4c(Cl)c(C)cc5[nH]ncc45)c3C)C2)C1 (single isomer, unassigned) [Example 166b] | 51
11 | C=CC(=O)N1CC2(CC(n3nc(N4CCN(CC(C)(C)O)CC45CCC5)c(-c4c(Cl)c(F)cc5[nH]ncc45)c3C)C2)C1 (single isomer, unassigned) [Example 167a, 1-(6-(4-(5-chloro-6-fluoro-1H-indazol-4-yl)-3-(8-(2-hydroxy-2-methylpropyl)-5,8-diazaspiro[3.5]nonan-5-yl)-5-methyl-1H-pyrazol-1-yl)-2-azaspiro[3.3]heptan-2-yl)prop-2-en-1-one] | > 5000
12 | C=CC(=O)N1CC2(CC(n3nc(N4CCN(CC(C)(C)O)CC45CCC5)c(-c4c(Cl)c(F)cc5[nH]ncc45)c3C)C2)C1 (single isomer, unassigned) [Example 167b, 1-(6-(4-(5-chloro-6-fluoro-1H-indazol-4-yl)-3-(8-(2-hydroxy-2-methylpropyl)-5,8-diazaspiro[3.5]nonan-5-yl)-5-methyl-1H-pyrazol-1-yl)-2-azaspiro[3.3]heptan-2-yl)prop-2-en-1-one] | 31
13 | C=CC(=O)N1CC2(CC(n3nc(N4CCN(C[C@@H]5COCCO5)CC45CCC5)c(-c4c(Cl)c(C)cc5[nH]ncc45)c3C)C2)C1 (single isomer, unassigned) [Example 169a] | > 5000
14 | C=CC(=O)N1CC2(CC(n3nc(N4CCN(C[C@@H]5COCCO5)CC45CCC5)c(-c4c(Cl)c(C)cc5[nH]ncc45)c3C)C2)C1 (single isomer, unassigned) [Example 169b] | 12
15 | C=CC(=O)N1CC2(CC(n3nc(N4CCN(CCOC)CC4(C)C)c(-c4c(Cl)c(C)cc5[nH]ncc45)c3C)C2)C1 (single isomer, unassigned) [Example 170a, 1-(6-(4-(5-chloro-6-methyl-1H-indazol-4-yl)-3-(4-(2-methoxyethyl)-2,2-dimethylpiperazin-1-yl)-5-methyl-1H-pyrazol-1-yl)-2-azaspiro[3.3]heptan-2-yl)prop-2-en-1-one] | > 50000
16 | C=CC(=O)N1CC2(CC(n3nc(N4CCN(CCOC)CC4(C)C)c(-c4c(Cl)c(C)cc5[nH]ncc45)c3C)C2)C1 (single isomer, unassigned) [Example 170b, 1-(6-(4-(5-chloro-6-methyl-1H-indazol-4-yl)-3-(4-(2-methoxyethyl)-2,2-dimethylpiperazin-1-yl)-5-methyl-1H-pyrazol-1-yl)-2-azaspiro[3.3]heptan-2-yl)prop-2-en-1-one] | 60

Row | SMILES | IC50 [nM]
17 | C=CC(=O)N1CC2(CC(n3nc(N4CCN(C[C@@H]5COCCO5)CC45CCC5)c(-c4c(Cl)c(Cl)cc5[nH]ncc45)c3C)C2)C1 (single isomer, unassigned) [Example 171a] | > 5000
18 | C=CC(=O)N1CC2(CC(n3nc(N4CCN(C[C@@H]5COCCO5)CC45CCC5)c(-c4c(Cl)c(Cl)cc5[nH]ncc45)c3C)C2)C1 (single isomer, unassigned) [Example 171b] | 8
19 | C=CC(=O)N1CC2(CC(n3nc(N4CCN(C[C@@H]5COCCO5)CC4(C)C)c(-c4c(Cl)c(Cl)cc5[nH]ncc45)c3C)C2)C1 (single isomer, unassigned) [Example 172a] | 3900
20 | C=CC(=O)N1CC2(CC(n3nc(N4CCN(C[C@@H]5COCCO5)CC4(C)C)c(-c4c(Cl)c(Cl)cc5[nH]ncc45)c3C)C2)C1 (single isomer, unassigned) [Example 172b] | 15
21 | C=CC(=O)N1CC2(CC(n3nc(N4CCN(C[C@@H]5COCCO5)C[C@]4(C)CC)c(-c4c(Cl)c(C)cc5[nH]ncc45)c3C)C2)C1 (single isomer, unassigned) [Example 173a] | 2900
22 | C=CC(=O)N1CC2(CC(n3nc(N4CCN(C[C@@H]5COCCO5)C[C@]4(C)CC)c(-c4c(Cl)c(C)cc5[nH]ncc45)c3C)C2)C1 (single isomer, unassigned) [Example 173b] | 5
23 | C=C(F)C(=O)N1CC2(CC(n3nc(N4CCN(C[C@@H]5COCCO5)C[C@]4(C)CC)c(-c4c(Cl)c(C)cc5[nH]ncc45)c3C)C2)C1 (single isomer, unassigned) [Example 174a] | > 5000
24 | C=C(F)C(=O)N1CC2(CC(n3nc(N4CCN(C[C@@H]5COCCO5)C[C@]4(C)CC)c(-c4c(Cl)c(C)cc5[nH]ncc45)c3C)C2)C1 (single isomer, unassigned) [Example 174b] | 121
25 | CC[C@@]1(C)CN(C[C@@H]2COCCO2)CCN1c1nn(C2CC3(C2)CN(C(=O)/C=C/Cl)C3)c(C)c1-c1c(Cl)c(C)cc2[nH]ncc12 (single isomer, unassigned) [Example 175a] | 939
26 | CC[C@@]1(C)CN(C[C@@H]2COCCO2)CCN1c1nn(C2CC3(C2)CN(C(=O)/C=C/Cl)C3)c(C)c1-c1c(Cl)c(C)cc2[nH]ncc12 (single isomer, unassigned) [Example 175b] | 9
27 | C=CC(=O)N1CC2(CC(n3nc(N4CCN(CCN5CCOCC5=O)C[C@]4(C)CC)c(-c4c(Cl)c(C)cc5[nH]ncc45)c3C)C2)C1 (single isomer, unassigned) [Example 177a] | 8
28 | C=CC(=O)N1CC2(CC(n3nc(N4CCN(CCN5CCOCC5=O)C[C@]4(C)CC)c(-c4c(Cl)c(C)cc5[nH]ncc45)c3C)C2)C1 (single isomer, unassigned) [Example 177b] | 1700
29 | C=CC(=O)N1CC2(CC(n3nc(N4CCN(CCOC)C[C@]4(C)C(F)F)c(-c4c(Cl)c(C)cc5[nH]ncc45)c3C)C2)C1 (single isomer, unassigned) [Example 178a] | 3900
30 | C=CC(=O)N1CC2(CC(n3nc(N4CCN(CCOC)C[C@]4(C)C(F)F)c(-c4c(Cl)c(C)cc5[nH]ncc45)c3C)C2)C1 (single isomer, unassigned) [Example 178b] | 48
31 | C=CC(=O)N1CC2(CC(n3nc(N4CCN(CCOC)C[C@@]4(C)C(F)F)c(-c4c(Cl)c(C)cc5[nH]ncc45)c3C)C2)C1 (single isomer, unassigned) [Example 179a] | > 5000
32 | C=CC(=O)N1CC2(CC(n3nc(N4CCN(CCOC)C[C@@]4(C)C(F)F)c(-c4c(Cl)c(C)cc5[nH]ncc45)c3C)C2)C1 (single isomer, unassigned) [Example 179b] | 38
